Where a SMILES comes first, the peptide text is derived from it. Where no end group is shown, it is not given here.
Tests used:
[1] = system: murine bone marrow cells; assay: .THETA.-antigen expression on murine bone marrow cells (T-lymphocyte precursor differentiation); format: cell-based, CBA strain mice; design: .THETA.-antigen expression on murine bone marrow cells: unit not given here; details: for immunostimulatory activity in the in vitro assays used: .THETA.-antigen expression and IL-2 production assays, compared with Bestim; for Percent of murine bone marrow cells expressing .THETA.-antigen: Table 5; for .THETA.-antigen expression on murine bone marrow cells: Table 1
Method: Differentiation of murine T-lymphocyte precursors was studied by the enumeration of cells expressing early surface differentiation marker .THETA.-antigen. Bone marrow cells were obtained from CBA strain mice killed by cervical dislocation. Cells were washed from femur bones with Hank's balanced salt solution and washed 3 times with RPM 1-1640 medium by centrifugation at 400 xg. Peptides at desired concentrations were incubated with 1×10^6 /ml of obtained cells for 1 hour at 37° C. Theta-antigen (".THETA.-antigen") expression has been determined with antibrain antibodies in a cytotoxicity assay using complement-dependent cell lysis (Terasaki et al., "Microdroplet Lymphocyte Cytotoxicity Test. Manual of Tissue Typing Techniques," National Institutes of Health, Bethesda, Md., pp 50-55, 1972). Dead cells were counted microscopically after eosin staining. […] Its activity was much stronger than that of the reference thymogen peptide.
Differentiation of murine T-lymphocyte precursors was studied by the enumeration of cells expressing early surface differentiation marker--.THETA.-antigen which is an analog of the Thy-1 lymphocyte differentiation antigen. Bone marrow cells were obtained from CBA strain mice killed by cervical dislocation. Cells were washed from femur bones with Hank's balanced salt solution and washed 3 times with RPMI-1640 medium by centrifugation at 400 xg. Peptides at desired concentrations were incubated with 1×10^6 /ml of obtained cells for 1 hour at 37° C. .THETA.-antigen expression were determined with antibrain antibodies in a cytotoxicity assay using complement-dependent cell lysis (Terasaki et al., 1972). Dead cells were counted microscopically after eosin staining untreated bone marrow cells served as a negative control, and murine thymocytes as a positive control.

[2] = cited from earlier work
[3] = system: murine spleen cells; assay: IL-2 production by Concanavalin A activated murine spleen cells (CTLL-2 cell assay); format: cell-based, CBA mice; details: for interleukin-2 production by murine spleen cells: Table 6; for IL-2 production by murine spleen cells: Table 2
Method: Spleen cells from CBA mice were cultured in tissue culture plates at a 10^6 cells/ml in RPMI-1640 medium supplemented with 10% fetal calf serum, 2 mM L-glutamine, and 80 μg/ml of Gentamycin. 1 μg/ml of Concanavalin A was used to activate basal IL-2 production from murine spleen lymphocytes. Bestim was added to cell cultures at the "0" time. After 36 hours supernatants were collected, centrifuged at 800 xg and IL-2 levels were measured in a CTLL-2 cell assay (Gillis et al., "T-cell Growth Factor: Parameters of Production and Quantitative Assay for Activity," J. Immunol., 120: 2027-2032, 1978). […] However, due to the variations in the method for IL-2 measurements clear dose-response comparisons could not be achieved.
IL-2 production studies have been performed using murine spleen lymphocytes activated with Concanavalin A. Spleen cells from CBA mice were cultured in a tissue culture plates at a 1×10^6 /ml concentration in RPMI-1640 medium supplemented with 10% fetal calf serum, 2 mM L-glutamine,80 μg/ml Gentamycin and 1 μg/ml Concanavalin A as an inducer of basal level IL-2 synthesis. Bestim at various concentration was added to cell cultures at the "0" time. After 36 hours supernatants were collected, centrifuged at 800 xg and used for IL-2 levels determination in a CTLL-2 cell assay (Gillis et al., 1978). IL-2-dependent CTLL-2 cells were grown in RPMI-1640 medium in the presence of 1-2 U/ml recombinant IL-2 as a growth factor. Before assay, cells were washed twice to remove IL-2 from the medium. After this wash tested supernatants were added and cells were incubated for 36 hours. IL-2-induced proliferation was assayed using a ^3 H-thymidine incorporation method.

| Molecule | immunostimulatory activity in the in vitro assays used [1] | Percent of murine bone marrow cells expressing .THETA.-antigen ([1]; peptide 0.0001 μg/ml) [%] | Percent of murine bone marrow cells expressing .THETA.-antigen ([1]; peptide 0.001 μg/ml) [%] | Percent of murine bone marrow cells expressing .THETA.-antigen ([1]; peptide 0.01 μg/ml) [%] | Percent of murine bone marrow cells expressing .THETA.-antigen ([1]; peptide 0.1 μg/ml) [%] | Percent of murine bone marrow cells expressing .THETA.-antigen ([1]; peptide 1.0 μg/ml) [%] | Percent of murine bone marrow cells expressing .THETA.-antigen ([1]; peptide 10 μg/ml) [%] | Percent of murine bone marrow cells expressing .THETA.-antigen ([1]; peptide 100 μg/ml) [%] | interleukin-2 production by murine spleen cells ([3]; peptide 0.001 μg/ml) | interleukin-2 production by murine spleen cells ([3]; peptide 0.01 μg/ml) | interleukin-2 production by murine spleen cells ([3]; peptide 0.1 μg/ml) | interleukin-2 production by murine spleen cells ([3]; peptide 1.0 μg/ml) | interleukin-2 production by murine spleen cells ([3]; peptide 10 μg/ml) | interleukin-2 production by murine spleen cells ([3]; peptide 100 μg/ml) | other results |
| --- | --- | --- | --- | --- | --- | --- | --- | --- | --- | --- | --- | --- | --- | --- | --- |
| CC(C)C[C@H](NC(=O)CC[C@H](N)C(=O)O)C(=O)O [γ-L-glutamyl-L-leucine] | little, if any, of the activities of Bestim | – | – | – | – | – | – | – | – | – | – | – | – | – | – |
| RKDVY [thymopentin, Arg-Lys-Asp-Val-Tyr] | – | – | – | – | – | – | – | – | – | – | – | – | – | – | half-life of breakdown in plasma [2]: 30 s |
| CC[C@H](C)[C@H](NC(=O)CC[C@H](N)C(=O)O)C(=O)O [γ-L-glutamyl-L-isoleucine] | little, if any, of the activities of Bestim | – | – | – | – | – | – | – | – | – | – | – | – | – | – |
| γ-L-glutamyl-β-thienyl-D-alanyl-amide | active compounds were obtained | 20 | 23 | 20 | 27 | 28 | 36 | 40 | 146 ± 28 | 127 ± 26 | 128 ± 10 | 156 ± 11 | 172 ± 12 | 198 ± 7 | – |
| N[C@@H](CCC(=O)N[C@@H](Cc1cn(C=O)c2ccccc12)C(=O)O)C(=O)O [D, γ-L-glutamyl-Nin -formyl-L-tryptophan] | active compounds were obtained | 24 | 25 | 30 | 36 | 42 | 48 | 53 | 114 ± 16 | 125 ± 3 | 153 ± 20 | 132 ± 8 | 144 ± 7 | 154 ± 5 | – |
| N[C@@H](CCC(=O)N[C@@H](Cc1c[nH]cn1)C(=O)O)C(=O)O [γ-L-glutamyl-L-histidine] | little, if any, of the activities of Bestim | – | – | – | – | – | – | – | – | – | – | – | – | – | – |
| CC(=O)N[C@@H](CCC(=O)N[C@@H](Cc1c[nH]c2ccccc12)C(=O)O)C(=O)O [C, N-acetyl-γ-L-glutamyl-L-tryptophan] | active compounds were obtained | 19 | 28 | 35 | 40 | 45 | 46 | 50 | 128 ± 7 | 136 ± 7 | 149 ± 5 | 157 ± 9 | 170 ± 4 | 174 ± 8 | – |
| N[C@@H](CCC(=O)N[C@@H](Cc1ccccc1)C(=O)O)C(=O)O [γ-L-glutamyl-L-phenylalanine] | little, if any, of the activities of Bestim | – | – | – | – | – | – | – | – | – | – | – | – | – | – |
| N[C@@H](CCC(=O)N1CCC[C@H]1C(=O)O)C(=O)O [γ-L-glutamyl-L-proline] | little, if any, of the activities of Bestim | – | – | – | – | – | – | – | – | – | – | – | – | – | – |
| CN[C@@H](CCC(=O)N[C@@H](Cc1c[nH]c2ccccc12)C(=O)O)C(=O)O [B, N-methyl-γ-L-glutamyl-L-tryptophan] | active compounds were obtained | 20 | 29 | 34 | 40 | 47 | 51 | 53 | 134 ± 6 | 147 ± 8 | 152 ± 7 | 165 ± 6 | 171 ± 6 | 180 ± 11 | – |
| N[C@@H](CCC(=O)N[C@@H](Cc1ccc(O)cc1)C(=O)O)C(=O)O [γ-L-glutamyl-L-tyrosine] | little, if any, of the activities of Bestim | – | – | – | – | – | – | – | – | – | – | – | – | – | – |
| N[C@@H](CCC(=O)O)C(=O)N[C@@H](Cc1c[nH]c2ccccc12)C(=O)O [Thymogen, L-glutamyl-L-tryptophan, reference compound] (H-Glu-Trp-OH) | – | – | – | 18 | 20 | 25 | 29 | 32 | 115 ± 8 | 132 ± 16 | 118 ± 11 | 128 ± 5 | 129 ± 10 | 136 ± 4 | .THETA.-antigen expression on murine bone marrow cells ([1]; peptide 0.0001 μg/ml, 1 hour 37° C.): 10 ± 0.5; .THETA.-antigen expression on murine bone marrow cells ([1]; peptide 0.001 μg/ml): 10 ± 1.2; .THETA.-antigen expression on murine bone marrow cells ([1]; peptide 0.01 μg/ml): 10 ± 0.5; .THETA.-antigen expression on murine bone marrow cells ([1]; peptide 0.1 μg/ml): 9 ± 1.0; .THETA.-antigen expression on murine bone marrow cells ([1]; peptide 1.0 μg/ml): 21 ± 0.8; .THETA.-antigen expression on murine bone marrow cells ([1]; peptide 10 μg/ml): 36 ± 2.8; .THETA.-antigen expression on murine bone marrow cells ([1]; peptide 100 μg/ml): 37 ± 2.2; IL-2 production by murine spleen cells ([3]; peptide 0.001 μg/ml, 36 hours): 114 ± 12; IL-2 production by murine spleen cells ([3]; peptide 0.01 μg/ml): 106 ± 10; IL-2 production by murine spleen cells ([3]; peptide 0.1 μg/ml): 106 ± 5; IL-2 production by murine spleen cells ([3]; peptide 1.0 μg/ml): 189 ± 13; IL-2 production by murine spleen cells ([3]; peptide 10 μg/ml): 80 ± 9; IL-2 production by murine spleen cells ([3]; peptide 100 μg/ml): 89 ± 3 |

From patent publication US5744452A, “γ-L-glutamyl containing immunomodulator compounds and methods therewith” (Wei; Edward T., priority 1995, dated 1998)
